Reference: ChEMBL document CHEMBL3621097, “A step forward in the sigma enigma: a role for chirality in the sigma1 receptorligand interaction?” (Medchemcomm, 2015)
Activity calls are given as the source filed them. The calls are words filed in the database; no cut-off is given here.

How the values were obtained:
[1] = Displacement of [3H]-DTG from sigma-2 receptor in Sprague-Dawley rat liver membranes after 120 mins by scintillation counting analysis; assay type: cell membranes, Membrane
[2] = target: Sigma non-opioid intracellular receptor 1 (Cavia porcellus, UniProt Q60492); assay: Displacement of [3H](+)-pentazocine from sigma-1 receptor in guinea pig brain cortex after 120 mins by scintillation counting analysis
[3] = target: Sigma non-opioid intracellular receptor 1 (Rattus norvegicus) (UniProt Q9R0C9); assay: Agonist activity at sigma 1 receptor in rat PC12 cells assessed as potentiation of NGF-induced neurite outgrowth at 2.5 to 5 uM after 5 days by phase contrast microscopic analysis in presence of sigma 1 antagonist NE-100; assay type: cell-based; settings: PC-12
[4] = target: Sigma non-opioid intracellular receptor 1 (Rattus norvegicus) (UniProt Q9R0C9); assay: Agonist activity at sigma 1 receptor in rat PC12 cells assessed as potentiation of NGF-induced neurite outgrowth at 2.5 to 5 uM after 5 days by phase contrast microscopic analysis; assay type: cell-based; settings: PC-12
[5] = Selectivity ratio of Ki for sigma-2 receptor in Sprague-Dawley rat liver membrane to Ki for sigma-1 receptor in guinea pig brain cortex; assay type: cell membranes
[6] = target: Sigma non-opioid intracellular receptor 1 (Rattus norvegicus) (UniProt Q9R0C9); assay: Agonist activity at sigma 1 receptor in rat PC12 cells assessed as potentiation of NGF-induced neurite outgrowth at 2.5 to 5 uM after 5 days by phase contrast microscopic analysis relative to NGF-treated control; assay type: cell-based; settings: PC-12

Sigma non-opioid intracellular receptor 1, sequence (Q60492 whole entry): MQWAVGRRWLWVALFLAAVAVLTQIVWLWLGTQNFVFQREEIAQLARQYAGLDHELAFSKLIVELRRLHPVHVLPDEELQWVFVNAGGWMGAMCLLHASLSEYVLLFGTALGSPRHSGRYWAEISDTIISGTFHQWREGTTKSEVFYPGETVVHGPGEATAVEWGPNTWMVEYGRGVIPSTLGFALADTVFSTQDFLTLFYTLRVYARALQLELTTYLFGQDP
Sigma non-opioid intracellular receptor 1 (Rattus norvegicus), sequence (Q9R0C9 whole entry): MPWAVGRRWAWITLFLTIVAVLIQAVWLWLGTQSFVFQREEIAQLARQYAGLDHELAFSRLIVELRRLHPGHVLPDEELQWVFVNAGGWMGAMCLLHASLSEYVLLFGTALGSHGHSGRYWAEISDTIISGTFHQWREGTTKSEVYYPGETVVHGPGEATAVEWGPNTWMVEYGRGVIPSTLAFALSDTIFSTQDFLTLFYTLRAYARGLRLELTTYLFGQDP

SMILES | Ki [1] [nM] | Ki [2] [nM] | Activity [3] | Activity [4] | Ratio Ki [5] | Activity [6]
C[C@@H](CCN1CCCCC1)c1ccc(-c2ccccc2)cc1 | 98 | 1.9 |  |  |  | 
C[C@](O)(CCN1CCCCC1)c1ccc(-c2ccccc2)cc1 | 1800 | 4.7 | inactive | Active | 382 | 
C[C@@](O)(CCN1CCCCC1)c1ccc(-c2ccccc2)cc1 | 4300 | 39 |  |  |  | inactive
C[C@H]1N(C)CC[C@]1(O)c1ccc2ccccc2c1 | 94 | 86 |  |  |  | 
COc1ccc2cc([C@](C)(O)CCN(C)C)ccc2c1 | 133 | 51 |  |  |  | 
CC(O)(CCN1CCCCC1)c1ccc(-c2ccccc2)cc1 (racemic) | 34.6 | 6.57 | inactive | Active |  | 
CN(C)CCC(C)(O)c1ccc2ccccc2c1 (racemic) | 66 | 77 |  |  |  | 
CC1N(C)CCC1(O)c1ccc2ccccc2c1 (racemic) | 366 | 65 |  |  |  | 

Continued, values first:

Ki [1] [nM] | Ki [2] [nM] | Activity [3] | Activity [4] | Ratio Ki [5] | Activity [6] | SMILES
1100 | 25 |  |  |  |  | COc1ccc2cc([C@@](C)(O)CCN(C)C)ccc2c1
75 | 63 |  |  |  |  | CN(C)CC[C@](C)(O)c1ccc2ccccc2c1
1900 | 1200 |  |  |  |  | COc1ccc2cc([C@]3(O)CCN(C)[C@H]3C)ccc2c1
432 | 26 |  |  |  |  | C[C@@H]1N(C)CC[C@@]1(O)c1ccc2ccccc2c1
651 | 205 |  |  |  |  | CN(C)CC[C@@](C)(O)c1ccc2ccccc2c1
97 | 41 |  |  |  |  | COc1ccc2cc(C(C)(O)CCN(C)C)ccc2c1 (racemic)
45 | 1.8 |  |  |  |  | C[C@H](CCN1CCCCC1)c1ccc(-c2ccccc2)cc1
1200 | 1500 |  |  |  |  | COc1ccc2cc([C@@]3(O)CCN(C)[C@@H]3C)ccc2c1
1500 | 1900 |  |  |  |  | COc1ccc2cc(C3(O)CCN(C)C3C)ccc2c1 (configuration not stated)
103 | 0.9 |  |  |  |  | CC(CCN1CCCCC1)c1ccc(-c2ccccc2)cc1 (racemic)
